Assay results: patent publication US20250214969A1, “PROTEIN DEGRADERS AND USES THEREOF” (Kymera Therapeutics, Inc., priority 2022, published 2025)

Tests used:
[1] = target: T1, truncated His-MBP-Tev-KLHDC2 (residues 1-363) (Homo sapiens, UniProt Q9Y2U9); test: KLHDC2 HTRF binding assay; conditions: 1 nM KLHDC2 (residues 1-363), fluorescein-labeled diglycine peptide probe
T1 construct: truncated His -MBP-Tev-KLHDC2 (residues 1-363) purified from E. coli; made in house; host or cells: E. coli
T1 sequence (Q9Y2U9 1-363): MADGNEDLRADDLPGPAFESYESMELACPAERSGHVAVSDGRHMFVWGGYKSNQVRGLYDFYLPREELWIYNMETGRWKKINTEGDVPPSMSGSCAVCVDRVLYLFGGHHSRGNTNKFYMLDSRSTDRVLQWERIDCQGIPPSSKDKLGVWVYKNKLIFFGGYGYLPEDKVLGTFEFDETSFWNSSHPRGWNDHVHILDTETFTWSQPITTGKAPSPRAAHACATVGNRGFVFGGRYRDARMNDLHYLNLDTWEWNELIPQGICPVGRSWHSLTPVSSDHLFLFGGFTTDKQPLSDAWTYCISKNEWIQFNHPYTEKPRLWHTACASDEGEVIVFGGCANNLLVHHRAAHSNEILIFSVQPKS

[2] = target: T1, truncated His-MBP-Tev-KLHDC2 (residues 1-363); test: KLHDC2 FP competition binding assay; conditions: 15 nM KLHDC2 (residues 1-363), 10 nM fluorescein-labeled diglycine peptide probe, read-out: KLHDC2 binding Human FP: average external IC50

Structure (SMILES)	IC50 [1]	IC50 [2]
O=C(O)Cn1cc(NC(=O)[C@@H]2CN(c3cccnc3)Cc3ccccc32)ccc1=O [I-34]	> 5000 nM	> 5 µM
O=C(O)Cc1cc(NC(=O)[C@H]2CCCN(c3cccnc3)C2)ccc1Cl [I-35]	50 to 500 nM	0.5 to 5 µM
CN(CC(C)(C)C(=O)Nc1ccc(=O)n(CC(=O)O)c1)c1cccnc1 [I-36]	> 5000 nM	> 5 µM
O=C(Nc1ccnc(C(=O)O)c1)c1cccc(-c2cccnc2)c1 [I-37]	> 5000 nM	> 5 µM
CNc1cncc(N2CCC[C@H](C(=O)Nc3ccc(=O)n(CC(=O)O)c3)C2)c1 [I-40]	< 50 nM	0.05 to 0.5 µM
O=C(O)Cn1cc(NC(=O)[C@H]2CCCN(c3cncc4ccccc34)C2)ccc1=O [I-41]	< 50 nM	< 0.05 µM
O=C(O)Cn1cc(NC(=O)c2cccc(-c3cccnc3)c2Cl)ccc1=O [I-42]	500 to 5000 nM	> 5 µM
CN(CC1(C(=O)Nc2ccc(=O)n(CC(=O)O)c2)CC1)c1cccnc1 [I-43]	> 5000 nM	> 5 µM
COc1cncc(N2CCC[C@H](C(=O)Nc3ccc(=O)n(CC(=O)O)c3)C2)c1 [I-45]	< 50 nM	0.05 to 0.5 µM
CC(C)c1cc(=O)n(CC(=O)O)cc1NC(=O)[C@H]1CCCN(c2cccnc2)C1 [I-46]	500 to 5000 nM	> 5 µM
COc1cncc(-c2cccc(C(=O)Nc3ccc(=O)n(CC(=O)O)c3)c2)c1 [I-47]	< 50 nM	0.5 to 5 µM
O=C(O)Cn1cc(NC(=O)[C@H]2CCN(c3cccnc3)C2)ccc1=O [I-48]	500 to 5000 nM	> 5 µM
CCc1cc(=O)n(CC(=O)O)cc1NC(=O)[C@H]1CCCN(c2cccnc2)C1 [I-50, 2-[4-ethyl-2-oxo-5-[(3S)-1-(3-pyridyl)piperidine-3-carbonyl|amino]-1-pyridyl]acetic acid]	50 to 500 nM	0.5 to 5 µM
O=C(Nc1ccc(=O)n([C@H](F)C(=O)O)c1)c1cccc(-c2cccnc2)c1 [I-52]	> 5000 nM	> 5 µM
CC1CC(C(=O)Nc2ccc(=O)n(CC(=O)O)c2)CN(c2cccnc2)C1 (stereo not shown) [I-53]	50 to 500 nM	0.5 to 5 µM
O=C(O)Cc1cc(NC(=O)c2cccc(-c3cccnc3)c2)ccc1F [I-55]	500 to 5000 nM	> 5 µM
O=C(O)Cn1cc(Nc2ncc(-c3cccnc3)c3ccccc23)ccc1=O [I-56]	500 to 5000 nM	> 5 µM
O=C(O)Cn1cc(NC(=O)[C@H]2CCCN(c3cccnc3)C2)c(C2CC2)cc1=O [I-57]	> 5000 nM	> 5 µM
O=C(O)Cc1cc(NC(=O)c2cccc(-c3cccnc3)c2)ccc1Cl [I-60]	500 to 5000 nM	> 5 µM
O=C(O)Cn1cc(NC(=O)c2cccc(-c3cccnc3)c2)c(C2CC2)cc1=O [I-62]	500 to 5000 nM	> 5 µM
O=C(O)Cn1cc(NC(=O)[C@@H]2CCCN(c3cccnc3)C2)c(C(F)(F)F)cc1=O [I-63]	500 to 5000 nM	> 5 µM
O=C(O)Cn1cc(NC(=O)[C@H]2C[C@H](C(F)(F)F)CN(c3cccnc3)C2)ccc1=O [I-64]	50 to 500 nM	0.5 to 5 µM

Structure (SMILES)	IC50 [1]	IC50 [2]
O=C(O)Cn1cc(NC(=O)[C@@H]2C[C@H](C(F)(F)F)CN(c3cccnc3)C2)ccc1=O [I-65]	50 to 500 nM	0.5 to 5 µM
C[C@@]1(C(=O)Nc2ccc(=O)n(CC(=O)O)c2)CCCN(c2cccnc2)C1 [I-66]	500 to 5000 nM	> 5 µM
O=C(O)Cn1cc(N2CCc3cc(-c4cccnc4)ccc3C2=O)ccc1=O [I-68]	500 to 5000 nM	> 5 µM
N#CCn1cc(NC(=O)c2cccc(-c3cccnc3)c2)ccc1=O [I-69]	> 5000 nM	> 5 µM
Cc1c(NC(=O)c2cccc(-c3cccnc3)c2)ccc(=O)n1CC(=O)O [I-70]	> 5000 nM	> 5 µM
C[C@@H](C(=O)O)n1cc(NC(=O)c2cccc(-c3cccnc3)c2)ccc1=O [I-71]	> 5000 nM	> 5 µM
C[C@H](C(=O)O)n1cc(NC(=O)c2cccc(-c3cccnc3)c2)ccc1=O [I-72]	500 to 5000 nM	> 5 µM
C[C@]1(C(=O)Nc2ccc(=O)n(CC(=O)O)c2)CCCN(c2cccnc2)C1 [I-75]	500 to 5000 nM	0.5 to 5 µM
CS(=O)(=O)NC(=O)Cn1cc(NC(=O)c2cccc(-c3cccnc3)c2)ccc1=O [I-78]	> 5000 nM	> 5 µM
O=C(O)Cn1cc(N2Cc3ccc(-c4cccnc4)cc3C2=O)ccc1=O [I-81]	> 5000 nM	> 5 µM
O=C(O)Cn1cc(NC(=O)[C@H]2CCCN(c3cccnc3)C2)c(Cl)cc1=O [I-83]	50 to 500 nM	0.5 to 5 µM
Cc1cc(=O)n(CC(=O)O)cc1NC(=O)[C@H]1CCCN(c2cccnc2)C1 [I-84]	50 to 500 nM	0.5 to 5 µM
O=C(O)CN1CC(NC(=O)c2cccc(-c3cccnc3)c2)CCC1=O (stereo not shown) [I-86]	> 5000 nM	> 5 µM
O=C(O)Cn1cc(Nc2ncnc3c(-c4cccnc4)cccc23)ccc1=O [I-87]	> 5000 nM	> 5 µM
O=C(O)Cn1cc(N2CCc3ccc(-c4cccnc4)cc3C2=O)ccc1=O [I-89]	50 to 500 nM	0.5 to 5 µM
O=C(O)Cn1cc(NC(=O)[C@H]2CCCN(c3cccnc3)C2)ccc1=O [I-91]	< 50 nM	0.05 to 0.5 µM
O=C(O)Cn1cc(NC(=O)[C@@H]2CCCN(c3cccnc3)C2)ccc1=O [I-92]	50 to 500 nM	0.5 to 5 µM
O=C(O)CCn1cc(NC(=O)c2cccc(-c3cccnc3)c2)ccc1=O [I-94]	> 5000 nM	> 5 µM
Cc1cc(=O)n(CC(=O)O)cc1NC(=O)c1cccc(-c2cccnc2)c1 [I-96]	50 to 500 nM	0.5 to 5 µM
O=C(O)Cn1cc(NC(=O)c2cccc(-c3cccnc3)c2)c(Cl)cc1=O [I-97]	50 to 500 nM	0.5 to 5 µM
NCCCCCCc1cccc2c(-c3cccc(C(=O)Nc4ccc(=O)n(CC(=O)O)c4)c3)cncc12 [I-110]	50 to 500 nM	> 5 µM

Continued, values first:

IC50 [1]	IC50 [2]	Structure (SMILES)
50 to 500 nM	0.5 to 5 µM	O=C(O)Cc1cc(NC(=O)[C@H]2CCCN(c3cccnc3)C2)ccc1F [I-33]
> 5000 nM	> 5 µM	O=C(O)Cn1cc(N2CCC3(CCN(c4cccnc4)CC3)C2=O)ccc1=O [I-38]
< 50 nM	0.05 to 0.5 µM	CCc1cncc(N2CCC[C@H](C(=O)Nc3ccc(=O)n(CC(=O)O)c3)C2)c1 [I-39]
> 5000 nM	> 5 µM	O=C(O)Cn1cc(NC(=O)[C@@H]2CCN(c3cccnc3)C2)ccc1=O [I-49]
500 to 5000 nM	> 5 µM	O=C(Nc1ccc(=O)n([C@@H](F)C(=O)O)c1)c1cccc(-c2cccnc2)c1 [I-51]
50 to 500 nM	0.5 to 5 µM	CCc1cc(=O)n(CC(=O)O)cc1NC(=O)c1cccc(-c2cccnc2)c1 [I-54]
500 to 5000 nM	> 5 µM	O=C(O)Cn1cc(NC(=O)[C@@H]2CCCN(c3cccnc3)C2)c(C2CC2)cc1=O [I-58]
50 to 500 nM	0.5 to 5 µM	CC(C)c1cc(=O)n(CC(=O)O)cc1NC(=O)c1cccc(-c2cccnc2)c1 [I-59]
50 to 500 nM	0.5 to 5 µM	CC1CCN(c2cccnc2)CC1C(=O)Nc1ccc(=O)n(CC(=O)O)c1 (stereo not shown) [I-61]
> 5000 nM	> 5 µM	O=C(O)Cn1cc(NC(=O)[C@H]2CCCN(c3cccnc3)C2)c(C(F)(F)F)cc1=O [I-67]
500 to 5000 nM	> 5 µM	O=C(O)Cn1cc(NC(=O)c2cccc(-c3cccnc3)c2)c(C(F)(F)F)cc1=O [I-73]
> 5000 nM	> 5 µM	O=C(O)Cn1cc(N2CCc3cccc(-c4cccnc4)c3C2=O)ccc1=O [I-74]
> 5000 nM	> 5 µM	O=C(Nc1ccc(=O)n(Cc2nn[nH]n2)c1)c1cccc(-c2cccnc2)c1 [I-79]
> 5000 nM	> 5 µM	O=C(O)Cn1cc(N2Cc3cccc(-c4cccnc4)c3C2=O)ccc1=O [I-80]
500 to 5000 nM	> 5 µM	O=C(O)Cn1cc(NC(=O)[C@@H]2CCCN(c3cccnc3)C2)c(Cl)cc1=O [I-82]
500 to 5000 nM	0.5 to 5 µM	O=C(O)Cn1cc(NC(=O)c2nccc(-c3cccnc3)n2)ccc1=O [I-85]
500 to 5000 nM	0.5 to 5 µM	O=C(O)Cn1cc(NC(=O)c2cc(-c3cccnc3)c3ccccc3c2)ccc1=O [I-88]
> 5000 nM	> 5 µM	O=C(O)CC1CN(C(=O)c2cccc(-c3cccnc3)c2)CCO1 (stereo not shown) [I-90]
> 5000 nM	> 5 µM	O=C(O)Cn1cc(Nc2nccc3c(-c4cccnc4)cccc23)ccc1=O [I-93]
500 to 5000 nM	> 5 µM	O=C(O)Cn1cc(N2CCc3ccccc3C2=O)ccc1=O [I-95]
> 5000 nM	> 5 µM	CCOC(=O)Cn1cc(NC(=O)c2cccc(-c3cccnc3)c2)ccc1=O [I-98]
< 50 nM	> 5 µM	NCCCCCCCCCc1ccc2c(-c3cccc(C(=O)Nc4ccc(=O)n(CC(=O)O)c4)c3)cncc2c1 [I-107]
50 to 500 nM	> 5 µM	NCCCCCCCCCc1cccc2c(-c3cccc(C(=O)Nc4ccc(=O)n(CC(=O)O)c4)c3)cncc12 [I-109]
> 5000 nM	> 5 µM	NC(=O)Cn1cc(NC(=O)c2cccc(-c3cncc4ccccc34)c2)ccc1=O [I-122]
> 5000 nM	> 5 µM	NC(=O)Cn1cc(NC(=O)c2cccc(-c3cccnc3)c2)ccc1=O [I-123]
